Measured values published in article PMC9965906, “Discovery and Development Strategies for SARS-CoV-2 NSP3 Macrodomain Inhibitors” (Pathogens, 2023).
Where “and” joins values, the source holds several entries; their conditions need not be identical. Identical values can stand only once. Counter-ions that a name gives are not always drawn. Like-named read-outs stand apart in the source and are kept apart here.

Target: SARS-CoV-2 NSP3 Mac1 (Severe acute respiratory syndrome coronavirus 2, UniProt P0DTD1)
Experiment: biochemical
Type: binding
Settings: for inhibition at 50 µM / NSP3 Mac1 inhibition at 50 µM (%): FDA-approved compound library primary screen, single shot; for inhibition at 125 µM: read-out: Inhibition at top concentration of 125 µM (%)
[1] = MIDAS compound library primary screen
[2] = BioAscent virtual screening hit compounds, duplicate
[3] = MIDAS hit compounds and analogues
[4] = MIDAS hit compounds and analogues, top concentration 125 µM, 8-point 1:1 dilution, duplicate
[5] = MIDAS hit compounds and analogues, top concentration 125 µM, 8-point 1:1 dilution, duplicate, read-out: IC50

CCOc1ccc2nc3cc(N)ccc3c(N)c2c1 [Ethacridine lactate, reference compound]
inhibition at 50 µM: 49.3%

CC(=O)N1CCc2nc(N)c(C#N)c(-c3cccc(-c4ccco4)c3)c2C1 [ARUK4004310-001-001, CC(=O)N1CCc2nc(c(c(c2C1)-c1cccc(c1)-c1ccco1)C#N)N]
inhibition at 25 µM [1]: 61%

CC(=O)c1ccc(-c2ccc(N)cc2)s1 [IAL-MD0305, CC(=O)c1ccc(-c2ccc(N)cc2)s1]
inhibition at 187 µM (BioAscent hit compounds, 187 µM, read-out: Inhibition at top screening concentration of 187 µM): 63.1%
Hill slope (BioAscent hit compounds, confirmatory IC50 curves): 0.6
IC50 (BioAscent hit compounds, top concentration 187 µM, 8-point 1:1 dilution, duplicate, read-out: IC50): 28 µM
inhibition at 25 µM [2]: 56.2%

CCCNC(=O)c1cc(-c2ccc(OC)cc2)nc2ccccc12 [IAL-MD0098, CCCNC(=O)C=1C=C(N=C2C=CC=CC12)C=3C=CC(OC)=CC3]
inhibition at 125 µM [3]: 22%
IC50 in µM [4]: Not measurable

NC(=O)c1ccc[n+]([C@@H]2O[C@H](COP(=O)([O-])OP(=O)(O)OC[C@H]3O[C@@H](n4cnc5c(N)ncnc54)[C@H](O)[C@@H]3O)[C@@H](O)[C@H]2O)c1 [Nadide, reference compound]
NSP3 Mac1 inhibition at 50 µM (%): 100%
inhibition at 50 µM: 99.9%

COc1cc(/C=C/C(=O)c2cc3ccccc3o2)cc(Br)c1O [BCC0117785, COc1cc(/C=C/C(=O)c2cc3ccccc3o2)cc(Br)c1O]
inhibition at 25 µM [2]: 39.3%

COc1ncccc1C(=O)N1CCC(c2c[nH]c3ncccc23)CC1 [IAL-MD0084, COC=1N=CC=CC1C(=O)N2CCC(CC2)C3=CNC=4N=CC=CC34]
inhibition at 125 µM [3]: 13.2%
IC50 in µM [4]: Not measurable

Cc1nn(C)c2nc(-c3ccccc3)cc(C(=O)N3CCN(C(=O)C4CC4)CC3)c12 [IAL-MD0045, CC1=NN(C)C=2N=C(C=C(C(=O)N3CCN(CC3)C(=O)C4CC4)C12)C=5C=CC=CC5]
inhibition at 125 µM [3]: 47.5%
IC50 in µM [4]: Not measurable

O=C1c2c(O)ccc(O)c2C(=O)c2c(NCCNCCO)ccc(NCCNCCO)c21 [Mitoxantrone hydrochloride, reference compound]
IC50 (FDA-approved hit compounds re-supplied, top concentration 125 µM, read-out: IC50): 14.1 µM and ~14 µM

N.N.O=C([O-])C1(C(=O)[O-])CCC1.[Pt+2] [Carboplatin, reference compound]
NSP3 Mac1 inhibition at 50 µM (%): 97.3%
outcome of dose-response titration (FDA-approved hit compounds, top concentration 125 µM): strong assay interference

CCCNC(=O)c1ccc(-c2ccnc3c2ccn3C)o1 [IAL-MD0148, O=C(NCCC)C1=CC=C(C2=C3C(N(C)C=C3)=NC=C2)O1]
Inhibition at top concentration of 125 µM (%) [3]: Not measurable due to compound precipitation
IC50 [5]: 7.7 µM

Nc1ccc(S(=O)(=O)[O-])cc1.Nc1ccc(S(=O)(=O)[O-])cc1.O.O.O.O.[Zn+2] [Sulfanilate zinc, reference compound]
NSP3 Mac1 inhibition at 50 µM (%): 44.2%

CCn1ncc2c(C(=O)N3CCCC(C)C3)cc(-c3ccccc3)nc21 (stereo not shown) [IAL-MD0096, CCN1N=CC=2C(=CC(=NC12)C=3C=CC=CC3)C(=O)N4CCCC(C)C4]
inhibition at 125 µM [3]: 3.9%
IC50 in µM [4]: Not measurable

CC(C)n1ncc2c(C(=O)Nc3ccn(C)n3)cc(-c3cccs3)nc21 [IAL-MD0090, CC(C)N1N=CC=2C(=CC(=NC12)C3=CC=CS3)C(=O)NC=4C=CN(C)N4]
inhibition at 125 µM [3]: 11%
IC50 in µM [4]: Not measurable

C[C@H]1[C@H](NC(=O)/C(=N\OC(C)(C)C(=O)O)c2csc(N)n2)C(=O)N1S(=O)(=O)O [Aztreonam, reference compound]
NSP3 Mac1 inhibition at 50 µM (%): 43%
inhibition at 50 µM: 42.8%
Hill slope (FDA-approved hit compounds, confirmatory HTRF assays): 1.05
IC50 (IC50): 29.3 µM and 29 µM

NC(=O)[C@@H]1CCCN1C(=O)c1cc(-n2cccc2)ccc1Cl [ARUK4000702-001-001, NC(=O)[C@@H]1CCCN1C(=O)c1cc(ccc1Cl)-n1cccc1]
inhibition at 25 µM [1]: 45.8%

O=c1c(O)c(-c2cccs2)oc2ccccc12 [BCC0111915, O=c1c(O)c(-c2cccs2)oc2ccccc12]
inhibition at 25 µM [2]: 62.9%

CCn1ncc2c(C(=O)N3CCN(C(=O)c4ccccc4)CC3)cc(-c3ccccc3)nc21 [IAL-MD0069, CCN1N=CC=2C(=CC(=NC12)C=3C=CC=CC3)C(=O)N4CCN(CC4)C(=O)C=5C=CC=CC5]
Inhibition at top concentration of 125 µM (%) [3]: Not measurable
IC50 in µM [4]: Not measurable

CCCCCCCC/C=C\CCCCCCCC(=O)O.NCCO [Ethanolamine oleate, reference compound]
NSP3 Mac1 inhibition at 50 µM (%): 56.1%

Cn1ccc2c(-c3ccc(C(=O)N4CCCCC4)cn3)ccnc21 [IAL-MD0128, O=C(C1=CN=C(C2=C3C(N(C)C=C3)=NC=C2)C=C1)N4CCCCC4]
inhibition at 25 µM [1]: 58%
Inhibition at top concentration of 125 µM (%) [3]: Not measurable due to compound precipitation
IC50 [5]: ~3.1 µM and 3.1 µM
assay effects in dose-response titration (MIDAS hits and analogues, higher compound concentrations): assay interference effects at higher compound concentrations

Cc1nn(C)c2nc(-c3cccs3)cc(C(=O)NC3CCOCC3)c12 [IAL-MD0121, CC1=NN(C)C=2N=C(C=C(C(=O)NC3CCOCC3)C12)C4=CC=CS4]
inhibition at 125 µM [3]: 17.8%
IC50 in µM [4]: Not measurable
